{"source": "patent US7629334B1", "about": "“Mesoprogrestins (progesterone receptor modulations) as a component of compositions for hormone replacement therapy (HRT)” (Bayer Schering Pharma Aktiengesellschaft, priority 1999, dated 2009)", "key": {"[1]": {"system": "pregnant guinea pigs", "test": "Abortifacient (labor inducing) activity in pregnant guinea pigs", "assay_type": "in vivo, guinea pig", "settings": "for abortifacient activity ED50, guinea pig: treatment day 43-44 of pregnancy, autopsy day 50; for maximal abortion rate: up to 100 mg/kg/day", "procedure": "In the guinea pig model which allows a good prediction of the effects in humans with respect to the abortifacient activity (Elger W, Beier S., Chwalisz K, Fähnrich M, Hasan S H, Henderson D, Neef G, Rohde R (1986): Studies on the mechanism of action of progesterone antagonists. J Steroid Biochem 25: 835-845) the mesoprogestins J 867, J 912, J 956, J 1042 lead up to 100 mg/kg/day to a maximal abortion rate of 20%.\n(§1) The guinea pig is considered as relevant model of human gestation and parturition (Elger W, Fähnrich M, Beier S, Quing S S, Chwalisz K (1987). Endometrial and myometrial effects of progesterone antagonists in pregnant guinea pigs. Am J Obstet Gynecol 157: 1065-1074; Elger W, Neef G, Beier S, Fähnrich M, Gründel M, Heermann J, Malmendier A, Laurent D, Puri C P, Singh M M, Hasan S H, Becker H (1992). Evaluation of antifertility activities of antigestagens in animal model. In: Puri C P and Van Look P F A (eds), Current Concepts in Fertility Regulation and Reproduction. Wiley Eastern Limited, New Delhi, pp. 303-328; Elger W, Faehnrich M, Beier S, Qing S S, Chwalisz K (1986). Mechanism of action of progesterone antagonists in pregnant guinea pigs. Contraception 6: 47-62; Elger W, Chwalisz K, Faehnrich M, Hasan S H, Laurent D, Beier S, Ottow E, Neef G, Garfield R E (1990). Studies on labor-conditioning and labor-inducing effects of antiprogesterones in animal model. In: Garfield R E (eds), Norwell, pp. 153-175.) The mechanism of abortion of antiprogestins in this species is the initiation of labor and finally the expulsion of the conceptus. Abortifacient effects in the rat during very early pregnancy reflect inhibitory effects on nidation rather than initiation of uterine contractions. Studies in the rat model lead to “overestimation” of the potential of antiprogestins to terminate pregnancy in humans. Conversely, in the guinea pig model, irrespective of the antiprogestin doses, there were high rates of ongoing pregnancies similar to the situation in humans (Elger et al., Current Concepts in Fertility Regulation and Reproduction cited above). Furthermore, in both humans and guinea pigs, there is a strong synergism between antiprogestins and prostaglandins with respect the induction of labor (see the articles cited above and Elger W, Beier S (1983). Prostaglandine und Antigestagene für den Schwangerschaftsabbruch (Prostaglandins and antigestagens for pregnancy termination). German Patent DE 3337450 12; Van Look P, Bygdeman M (1989). Antiprogestational steroids: a new dimension in human fertility regulation. Oxford reviews of reproductive medicine 11: 2-60).\nPregnant guinea pigs were treated on days 43 and 44 of pregnancy and observed until day 50 of gestation. For the effects of various treatments see table 1 and FIG. 2. It is typical for this model that expulsions occur with a delay of several days after treatment. It can be seen that Mesoprogestins have a much reduced abortifacient activity compared to RU486. […] The differences with respect to abortifacient activity seem qualitative ones. It is not possible to overcome the low abortifacient activity of a Mesoprogestin by the use of a higher dose."}, "[2]": {"system": "pregnant rats", "test": "Abortifacient activity in pregnant rats", "assay_type": "in vivo, rat", "settings": "treatment days 5-7 of pregnancy, autopsy day 9; * SAS, probit procedure", "source_text": "as §1"}, "[3]": {"target": "T1, progesterone receptor (PR) (Oryctolagus cuniculus, UniProt P06186)", "T1 construct": "from tissue; host or cells: endometrium of estradiol-primed juvenile rabbits, in vivo", "T1 sequence (P06186 1-930)": "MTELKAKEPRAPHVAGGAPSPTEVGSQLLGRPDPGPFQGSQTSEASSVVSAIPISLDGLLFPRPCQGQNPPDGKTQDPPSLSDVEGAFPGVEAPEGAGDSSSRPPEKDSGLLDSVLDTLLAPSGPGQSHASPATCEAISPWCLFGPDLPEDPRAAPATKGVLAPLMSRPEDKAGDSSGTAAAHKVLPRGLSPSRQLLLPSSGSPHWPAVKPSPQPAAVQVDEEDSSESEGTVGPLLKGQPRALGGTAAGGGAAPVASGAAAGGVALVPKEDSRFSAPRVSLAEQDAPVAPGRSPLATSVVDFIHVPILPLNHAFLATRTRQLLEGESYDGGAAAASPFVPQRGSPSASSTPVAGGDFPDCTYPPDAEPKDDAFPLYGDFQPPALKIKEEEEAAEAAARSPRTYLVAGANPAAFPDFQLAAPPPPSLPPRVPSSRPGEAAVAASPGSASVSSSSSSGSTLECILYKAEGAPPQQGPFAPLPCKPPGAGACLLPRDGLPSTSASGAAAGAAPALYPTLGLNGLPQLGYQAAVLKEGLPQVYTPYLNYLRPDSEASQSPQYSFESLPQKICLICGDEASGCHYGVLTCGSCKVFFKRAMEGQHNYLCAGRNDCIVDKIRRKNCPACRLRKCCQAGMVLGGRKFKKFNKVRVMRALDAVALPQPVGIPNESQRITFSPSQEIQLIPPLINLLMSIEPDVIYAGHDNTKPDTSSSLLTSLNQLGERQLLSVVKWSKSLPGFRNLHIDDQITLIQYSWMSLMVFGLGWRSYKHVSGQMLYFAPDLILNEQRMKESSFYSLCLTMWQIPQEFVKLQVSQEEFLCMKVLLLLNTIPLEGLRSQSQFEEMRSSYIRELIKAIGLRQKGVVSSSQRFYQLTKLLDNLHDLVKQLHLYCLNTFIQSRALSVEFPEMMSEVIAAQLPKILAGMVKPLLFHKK", "test": "McPhail test, PR agonistic properties in estradiol-primed juvenile rabbits", "assay_type": "in vivo, rabbit", "settings": "for maximum effect, McPhail score: 4 days s.c. treatment, absence of progesterone, 0 = no transformation, 4 = complete transformation", "procedure": "In the classical bioassay, the McPhail test, assessing progestagenic and antiprogestagenic effects in rabbits (Selye H., Textbook of Endocrinology, 1947, pp. 345-346), progesterone produces a maximum McPhail score of 4 (by definition). […] The PR antagonistic and agonistic properties of mesoprogestins were assessed in estrogen-primed rabbits in the McPhail test according to Selye (Textbook of Endocrinology, 1947, pp. 345-346)."}, "[4]": {"settings": "dose range 0.003-100 mg/rabbit s.c."}}, "data": [{"compound": "CC#C[C@]1(O)CC[C@H]2[C@@H]3CCC4=CC(=O)CCC4=C3[C@@H](c3ccc(N(C)C)cc3)C[C@@]21C", "note": "[RU 486, reference compound]", "values": [{"measurement": "abortifacient activity ED50, guinea pig", "setting": "[1]", "value": "3.8 mg/animal/day, s.c."}, {"measurement": "abortifacient activity ED50, Rat", "setting": "[2]", "value": "0.98* mg/animal/day, s.c."}]}, {"compound": "COCC1(O)CCC2C3CCC4=CC(=O)CCC4=C3C(c3ccc(C=NO)cc3)CC21C", "note": "(stereo not drawn) [Compound J912, 4-[17β-Hydroxy-17α-(methoxymethyl)-3-oxoestra-4,9-dien-11β-yl]benzaldehyd-(1E)-oxim]", "values": [{"measurement": "abortifacient activity ED50, guinea pig", "setting": "[1]", "value": ">100 mg/animal/day, s.c."}, {"measurement": "maximal abortion rate", "setting": "[1]", "value": 20, "unit": "%"}, {"measurement": "abortifacient activity ED50, Rat", "setting": "[2]", "value": "0.36 mg/animal/day, s.c."}]}, {"compound": "COC[C@]1(OC)CC[C@H]2[C@@H]3CCC4=CC(=O)CCC4=C3[C@@H](c3ccc(/C=N/O)cc3)C[C@@]21C", "note": "[Compound J867, 4-[17βMethoxy-17α-(methoxymethyl)-3-oxoestra-4,9-dien-11β-yl]benzaldehyd-(1E)-oxim]", "values": [{"measurement": "abortifacient activity ED50, guinea pig", "setting": "[1]", "value": ">100 mg/animal/day, s.c."}, {"measurement": "maximal abortion rate", "setting": "[1]", "value": 20, "unit": "%"}, {"measurement": "progestagenic effect compared with maximum effect of progesterone", "setting": "[3]; [4]", "value": "Neither mesoprogestin tested (J 1042, J867, J956) reached the maximum effect of progesterone"}, {"measurement": "abortifacient activity ED50, Rat", "setting": "[2]", "value": "0.65* mg/animal/day, s.c."}]}, {"compound": "CC(=O)[C@H]1CC[C@H]2[C@@H]3CCC4=CC(=O)CC[C@]4(C)[C@H]3CC[C@]12C", "note": "[Progesterone, progesterone]", "values": [{"measurement": "dose inducing endometrial transformation", "setting": "[3]; 4 days s.c.", "value": "≥ 0.1", "unit": "mg"}, {"measurement": "maximum effect, McPhail score", "setting": "[3]", "value": "~4"}]}, {"compound": "CN(C)c1ccc([C@H]2C[C@]3(C)[C@@H](CC[C@]3(O)CCCO)[C@@H]3CCC4=CC(=O)CCC4=C32)cc1", "note": "[Onapristone, onapristone, reference compound]", "values": [{"measurement": "abortifacient activity ED50, guinea pig", "setting": "[1]", "value": "ca 3 mg/animal/day, s.c."}, {"measurement": "abortifacient activity ED50, Rat", "setting": "[2]", "value": "1.71* mg/animal/day, s.c."}]}, {"compound": "CCNC(=O)O/N=C/c1ccc([C@H]2C[C@@]3(C)[C@@H](CC[C@]3(COC)OC)[C@@H]3CCC4=CC(=O)CCC4=C32)cc1", "note": "[Compound J956, 4-[17β-Methoxy-17α-(methoxymethyl)-3-oxoestra-4,9-dien-11β-yl]benzaldehyd-(1E)-[O-(ethylamino)carbonyl]oxim]", "values": [{"measurement": "abortifacient activity ED50, guinea pig", "setting": "[1]", "value": "20 mg/animal/day, s.c."}, {"measurement": "maximal abortion rate", "setting": "[1]", "value": 20, "unit": "%"}, {"measurement": "maximum effect, McPhail score", "setting": "[3]", "value": 1.5}, {"measurement": "progestagenic effect compared with maximum effect of progesterone", "setting": "[3]; [4]", "value": "Neither mesoprogestin tested (J 1042, J867, J956) reached the maximum effect of progesterone"}, {"measurement": "shape of dose response", "setting": "[3]; [4]", "value": "biphasic response"}, {"measurement": "abortifacient activity ED50, Rat", "setting": "[2]", "value": "0.64* mg/animal/day, s.c."}]}, {"compound": "CCSC(=O)O/N=C/c1ccc([C@H]2C[C@@]3(C)[C@@H](CC[C@]3(COC)OC)[C@@H]3CCC4=CC(=O)CCC4=C32)cc1", "note": "[Compound J1042, 4-[17β-Methoxy-17α-(methoxymethyl)-3-oxoestra-4,9-dien-11β-yl]benzaldehyd-(1E)-[O-(ethylthio)carbonyl]oxim]", "values": [{"measurement": "abortifacient activity ED50, guinea pig", "setting": "[1]", "value": ">>100 mg/animal/day, s.c."}, {"measurement": "maximal abortion rate", "setting": "[1]", "value": 20, "unit": "%"}, {"measurement": "progestagenic effect compared with maximum effect of progesterone", "setting": "[3]; [4]", "value": "Neither mesoprogestin tested (J 1042, J867, J956) reached the maximum effect of progesterone"}, {"measurement": "abortifacient activity ED50, Rat", "setting": "[2]", "value": ">10 mg/animal/day, s.c."}]}]}
